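1) Cells in 96-well plates. 2) Compound, 48 h, 5 concentrations. 3) Linear interpolation between surrounding doses. 4) Unreached endpoint = highest concentration. GI50 = concentration required for 50% inhibition of growth. TGI: total growth inhibition.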
What was measured:
Assay in all cases: NCI anticancer screen, dose series, 48 h; in the data active = GI50 below about 0.43 µM; inactive = the rest
SN12C renal = tested on: SN12C renal
UACC-62 melanoma = tested on: UACC-62 melanoma
T-47D breast = tested on: T-47D breast
K-562 leukemia = tested on: K-562 leukemia
PC-3 prostate = tested on: PC-3 prostate
NCI-H226 lung = tested on: NCI-H226 lung
DU-145 prostate = tested on: DU-145 prostate
MDA-MB-435 = tested on: MDA-MB-435
KM12 colon = tested on: KM12 colon
HCC-2998 colon = tested on: HCC-2998 colon
SK-MEL-2 melanoma = tested on: SK-MEL-2 melanoma
NCI-H522 lung = tested on: NCI-H522 lung
HCT-15 colon = tested on: HCT-15 colon
SF-295 CNS = tested on: SF-295 CNS
MCF7 breast = tested on: MCF7 breast
RPMI-8226 leukemia = tested on: RPMI-8226 leukemia
SF-268 CNS = tested on: SF-268 CNS
COLO 205 colon = tested on: COLO 205 colon
NCI/ADR-RES ovarian = tested on: NCI/ADR-RES ovarian
SNB-19 CNS = tested on: SNB-19 CNS
A549 NSCLC = tested on: A549 NSCLC
SK-MEL-5 melanoma = tested on: SK-MEL-5 melanoma
RXF 393 renal = tested on: RXF 393 renal
ACHN renal = tested on: ACHN renal
OVCAR-8 ovarian = tested on: OVCAR-8 ovarian
SK-OV-3 ovarian = tested on: SK-OV-3 ovarian
A498 renal = tested on: A498 renal
786-0 renal = tested on: 786-0 renal
HL-60(TB) leukemia = tested on: HL-60(TB) leukemia
MDA-MB-231 breast = tested on: MDA-MB-231 breast
MOLT-4 leukemia = tested on: MOLT-4 leukemia
TK-10 renal = tested on: TK-10 renal
BT-549 breast = tested on: BT-549 breast
NCI-H460 lung = tested on: NCI-H460 lung
SK-MEL-28 melanoma = tested on: SK-MEL-28 melanoma
IGROV1 ovarian = tested on: IGROV1 ovarian
SF-539 CNS = tested on: SF-539 CNS
UACC-257 melanoma = tested on: UACC-257 melanoma
UO-31 renal = tested on: UO-31 renal
CCRF-CEM leukemia = tested on: CCRF-CEM leukemia
LOX IMVI melanoma = tested on: LOX IMVI melanoma
M14 melanoma = tested on: M14 melanoma
OVCAR-5 ovarian = tested on: OVCAR-5 ovarian
OVCAR-4 ovarian = tested on: OVCAR-4 ovarian
MALME-3M melanoma = tested on: MALME-3M melanoma
NCI-H23 lung = tested on: NCI-H23 lung
SW-620 colon = tested on: SW-620 colon
HCT-116 colon = tested on: HCT-116 colon
OVCAR-3 ovarian = tested on: OVCAR-3 ovarian
EKVX NSCLC = tested on: EKVX NSCLC
HT29 colon = tested on: HT29 colon
SR leukemia = tested on: SR leukemia
U251 CNS = tested on: U251 CNS
HOP-62 NSCLC = tested on: HOP-62 NSCLC
SNB-75 CNS = tested on: SNB-75 CNS
HS 578T breast = tested on: HS 578T breast
CAKI-1 renal = tested on: CAKI-1 renal
HOP-92 NSCLC = tested on: HOP-92 NSCLC

CC1(C)N=C(N)N=C(N)N1c1ccc(OCC(=O)Nc2ccc(S(=O)(=O)F)cc2Cl)c(Cl)c1
> 100 µM: TGI (SN12C renal) | TGI (UACC-62 melanoma) | TGI (T-47D breast) | TGI (K-562 leukemia) | TGI (PC-3 prostate) | TGI (NCI-H226 lung) | TGI (DU-145 prostate) | TGI (MDA-MB-435) | TGI (KM12 colon) | TGI (HCC-2998 colon) | TGI (SK-MEL-2 melanoma) | TGI (NCI-H522 lung) | TGI (HCT-15 colon) | TGI (SF-295 CNS) | TGI (MCF7 breast) | TGI (RPMI-8226 leukemia) | TGI (SF-268 CNS) | TGI (COLO 205 colon) | TGI (NCI/ADR-RES ovarian) | TGI (SNB-19 CNS) | TGI (A549 NSCLC) | TGI (SK-MEL-5 melanoma) | TGI (RXF 393 renal) | TGI (ACHN renal) | TGI (OVCAR-8 ovarian) | TGI (SK-OV-3 ovarian) | TGI (A498 renal) | TGI (786-0 renal) | TGI (HL-60(TB) leukemia) | TGI (MDA-MB-231 breast) | TGI (MOLT-4 leukemia) | TGI (TK-10 renal) | TGI (BT-549 breast) | TGI (NCI-H460 lung) | TGI (SK-MEL-28 melanoma) | TGI (IGROV1 ovarian) | TGI (SF-539 CNS) | TGI (UACC-257 melanoma) | TGI (UO-31 renal) | TGI (CCRF-CEM leukemia) | TGI (LOX IMVI melanoma) | TGI (M14 melanoma) | TGI (OVCAR-5 ovarian) | TGI (OVCAR-4 ovarian) | TGI (MALME-3M melanoma) | TGI (NCI-H23 lung) | TGI (SW-620 colon) | TGI (HCT-116 colon) | TGI (OVCAR-3 ovarian) | TGI (EKVX NSCLC) | TGI (HT29 colon) | TGI (SR leukemia) | TGI (U251 CNS) | TGI (HOP-62 NSCLC) | TGI (SNB-75 CNS)
active: GI50 (IGROV1 ovarian) 0.42 µM | GI50 (CCRF-CEM leukemia) 0.277 µM
inactive: GI50 (SN12C renal) 4.41 µM | GI50 (UACC-62 melanoma) 1.16 µM | GI50 (T-47D breast) > 100 µM | GI50 (K-562 leukemia) 0.594 µM | GI50 (PC-3 prostate) 0.65 µM | GI50 (NCI-H226 lung) 57.8 µM | GI50 (DU-145 prostate) 5.69 µM | GI50 (MDA-MB-435) 3.36 µM | GI50 (KM12 colon) 4.63 µM | GI50 (HCC-2998 colon) 23.2 µM | GI50 (SK-MEL-2 melanoma) > 100 µM | GI50 (NCI-H522 lung) 7.09 µM | GI50 (HCT-15 colon) 4.15 µM | GI50 (SF-295 CNS) 5.23 µM | GI50 (MCF7 breast) 2.24 µM | GI50 (RPMI-8226 leukemia) 64.9 µM | GI50 (SF-268 CNS) 3.79 µM | GI50 (COLO 205 colon) 21.1 µM | GI50 (NCI/ADR-RES ovarian) 61.1 µM | GI50 (SNB-19 CNS) > 100 µM | GI50 (A549 NSCLC) 2.5 µM | GI50 (SK-MEL-5 melanoma) 1.15 µM | GI50 (RXF 393 renal) 17.5 µM | GI50 (ACHN renal) 5.57 µM | GI50 (OVCAR-8 ovarian) 7.79 µM | GI50 (SK-OV-3 ovarian) > 100 µM | GI50 (A498 renal) 13.3 µM | GI50 (786-0 renal) 3.13 µM | GI50 (HL-60(TB) leukemia) 1.46 µM | GI50 (MDA-MB-231 breast) 54.4 µM | GI50 (MOLT-4 leukemia) 6.74 µM | GI50 (TK-10 renal) 15.4 µM | GI50 (BT-549 breast) 58.4 µM | GI50 (NCI-H460 lung) 0.591 µM | GI50 (SK-MEL-28 melanoma) 37.6 µM | GI50 (SF-539 CNS) 4.77 µM | GI50 (UACC-257 melanoma) > 100 µM | GI50 (UO-31 renal) 44.7 µM | GI50 (LOX IMVI melanoma) 1.12 µM | GI50 (M14 melanoma) 5.01 µM | GI50 (OVCAR-5 ovarian) > 100 µM | GI50 (OVCAR-4 ovarian) > 100 µM | GI50 (MALME-3M melanoma) 33.8 µM | GI50 (NCI-H23 lung) 4.37 µM | GI50 (SW-620 colon) 1.08 µM | GI50 (HCT-116 colon) 2.7 µM | GI50 (OVCAR-3 ovarian) 5.34 µM | GI50 (EKVX NSCLC) > 100 µM | GI50 (HT29 colon) 2.57 µM | GI50 (SR leukemia) 0.82 µM | GI50 (U251 CNS) 5.73 µM | GI50 (HOP-62 NSCLC) 7.81 µM | GI50 (SNB-75 CNS) 5.72 µM

C[n+]1cccc(NC(=O)c2ccc3ccc4ccc(C(=O)Nc5ccc[n+](C)c5)nc4c3n2)c1
> 65.1 µM: TGI (HOP-92 NSCLC)
4.75 µM: TGI (RXF 393 renal)
active: GI50 (SN12C renal) 0.157 µM | GI50 (UACC-62 melanoma) 0.357 µM | GI50 (NCI-H226 lung) 0.121 µM | GI50 (DU-145 prostate) 0.376 µM | GI50 (A549 NSCLC) 0.155 µM | GI50 (NCI-H460 lung) 0.149 µM
9.9 µM: TGI (SNB-75 CNS)
42.1 µM: TGI (SF-268 CNS)
> 28 µM: TGI (A498 renal)
> 52.4 µM: TGI (MDA-MB-231 breast)
3.42 µM: TGI (NCI-H460 lung)
inactive: GI50 (T-47D breast) 0.52 µM | GI50 (K-562 leukemia) 2.4 µM | GI50 (PC-3 prostate) 6.21 µM | GI50 (HS 578T breast) 4.51 µM | GI50 (MDA-MB-435) 6.2 µM | GI50 (KM12 colon) 3.08 µM | GI50 (HCC-2998 colon) 3.04 µM | GI50 (SK-MEL-2 melanoma) 6.71 µM | GI50 (NCI-H522 lung) 0.645 µM | GI50 (HCT-15 colon) 3.37 µM | GI50 (SF-295 CNS) 2.59 µM | GI50 (MCF7 breast) 2.35 µM | GI50 (RPMI-8226 leukemia) 2.99 µM | GI50 (SF-268 CNS) 3.82 µM | GI50 (COLO 205 colon) 4.35 µM | GI50 (NCI/ADR-RES ovarian) > 100 µM | GI50 (SNB-19 CNS) 1.61 µM | GI50 (CAKI-1 renal) 4.93 µM | GI50 (RXF 393 renal) 1.98 µM | GI50 (ACHN renal) 4.75 µM | GI50 (OVCAR-8 ovarian) 9.02 µM | GI50 (SK-OV-3 ovarian) 1.97 µM | GI50 (A498 renal) 7.14 µM | GI50 (786-0 renal) 8.99 µM | GI50 (HL-60(TB) leukemia) 3.54 µM | GI50 (HOP-92 NSCLC) 7.15 µM | GI50 (MDA-MB-231 breast) 2.41 µM | GI50 (MOLT-4 leukemia) 21.3 µM | GI50 (TK-10 renal) 53.7 µM | GI50 (BT-549 breast) 24 µM | GI50 (SK-MEL-28 melanoma) 2.13 µM | GI50 (IGROV1 ovarian) 1.51 µM | GI50 (SF-539 CNS) 3.33 µM | GI50 (UACC-257 melanoma) > 100 µM | GI50 (UO-31 renal) > 20.2 µM | GI50 (CCRF-CEM leukemia) 5.56 µM | GI50 (LOX IMVI melanoma) 5.6 µM | GI50 (M14 melanoma) 3.67 µM | GI50 (OVCAR-5 ovarian) 47.8 µM | GI50 (OVCAR-4 ovarian) 7.37 µM | GI50 (MALME-3M melanoma) > 89.1 µM | GI50 (NCI-H23 lung) 1.41 µM | GI50 (SW-620 colon) 2.91 µM | GI50 (HCT-116 colon) 3.18 µM | GI50 (OVCAR-3 ovarian) 4.3 µM | GI50 (EKVX NSCLC) 5.08 µM | GI50 (HT29 colon) 2.38 µM | GI50 (U251 CNS) 2.23 µM | GI50 (HOP-62 NSCLC) 1.83 µM | GI50 (SNB-75 CNS) 1.15 µM
> 100 µM: TGI (T-47D breast) | TGI (K-562 leukemia) | TGI (PC-3 prostate) | TGI (MDA-MB-435) | TGI (KM12 colon) | TGI (HCC-2998 colon) | TGI (SK-MEL-2 melanoma) | TGI (HCT-15 colon) | TGI (MCF7 breast) | TGI (RPMI-8226 leukemia) | TGI (COLO 205 colon) | TGI (NCI/ADR-RES ovarian) | TGI (A549 NSCLC) | TGI (CAKI-1 renal) | TGI (ACHN renal) | TGI (OVCAR-8 ovarian) | TGI (786-0 renal) | TGI (HL-60(TB) leukemia) | TGI (MOLT-4 leukemia) | TGI (TK-10 renal) | TGI (BT-549 breast) | TGI (SK-MEL-28 melanoma) | TGI (IGROV1 ovarian) | TGI (UACC-257 melanoma) | TGI (UO-31 renal) | TGI (CCRF-CEM leukemia) | TGI (LOX IMVI melanoma) | TGI (M14 melanoma) | TGI (OVCAR-5 ovarian) | TGI (OVCAR-4 ovarian) | TGI (MALME-3M melanoma) | TGI (SW-620 colon) | TGI (HCT-116 colon) | TGI (OVCAR-3 ovarian) | TGI (EKVX NSCLC) | TGI (HT29 colon) | TGI (U251 CNS)
> 27 µM: TGI (SNB-19 CNS)
> 45 µM: TGI (NCI-H23 lung)
1.32 µM: TGI (SN12C renal)
97.5 µM: TGI (HOP-62 NSCLC)
0.693 µM: TGI (NCI-H226 lung)
23 µM: TGI (NCI-H522 lung)
2.05 µM: TGI (UACC-62 melanoma)
25.3 µM: TGI (SF-295 CNS)
15.6 µM: TGI (DU-145 prostate) | TGI (SF-539 CNS)
12.5 µM: TGI (SK-OV-3 ovarian)
> 68.6 µM: TGI (HS 578T breast)

Source: PubChem BioAssay (NCI)
